In patent US20150272950A1, “COMBINATION” (GLAXOSMITHKLINE LLC, priority 2012, published 2015):

Test system: SKOV3 cells (human ovarian carcinoma)
Experiment: SKOV3 subcutaneous xenograft tumor growth inhibition in female SCID mice
Type: in vivo
Conditions: 21 days, alone, SKOV3 tumors in SCID mice
Description: Female SCID mice were implanted subcutaneously with 5×10^6 SKOV3 cells (human ovarian carcinoma). When the tumor volume reached 300-400 mm^3, mice were block randomized to different treatment groups (n=8 mice/group). Mice received AKT inhibitor, Compound B (in this assay, Compound B, is used in the form of the free or unsalted compound), at 10 or 30 mg/kg, once daily (SID) for 21 days in 20% PEG-400, 1% DMSO in water. Compound A (in this assay, Compound A, is used in the form of monohydrochloride salt) was administered at 100 mg/kg, twice/day (BID) for 21 days either alone or in combination with Compound B. Mice were weighed and tumors measured by calipers twice weekly. Tumor volumes were calculated using the formula: tumor volume=(Length×Width^2)/2. The percentage of tumor growth inhibition was calculated on each day of tumor measurement using the formula: 100×[1-(average growth of the compound-treated tumors/average growth of vehicle-treated control tumors)].

SMILES	inhibition of tumor growth compared to vehicle treated mice (Compound A (monohydrochloride salt) 100 mg/kg, twice daily)	inhibition of tumor growth compared to vehicle treated mice (Compound B (free compound) 10 mg/kg, once daily)	inhibition of tumor growth compared to vehicle treated mice (Compound B (free compound) 30 mg/kg, once daily)
Cc1ccc(Nc2nccc(N(C)c3ccc4c(C)n(C)nc4c3)n2)cc1S(N)(=O)=O [Compound A, 5-[[4-[(2,3-dimethyl-2H-indazol-6-yl)methylamino]-2-pyrimidinyl]amino]-2-methylbenzenesulfonamide, reference compound]	47%	–	–
Cn1ncc(Cl)c1-c1cc(C(=O)N[C@H](CN)Cc2ccc(F)c(F)c2)oc1Cl [Compound B, N-{(1S)-2-amino-1-[(3,4-difluorophenyl)methyl]ethyl}-5-chloro-4-(4-chloro-1-methyl-1H-pyrazol-5-yl)-2-furancarboxamide]	–	67%	86%
